In brackets after ≈: the same amount, converted by molar mass. Activity calls are given as the source filed them. The calls are words filed in the database; no cut-off is given here.
Legend:
Pseudomonas aeruginosa [1] = test: Antibacterial activity against Pseudomonas aeruginosa ATCC 11775 upto 512 ug/mL; type: functional, organism-based
Escherichia coli [2] = test: Antibacterial activity against Escherichia coli ATCC 25668; type: functional
Salmonella typhimurium [3] = test: Antibacterial activity against Salmonella Typhimurium isolate; type: functional, Salmonella enterica subsp. enterica serovar Typhimurium; conditions: Salmonella enterica
Staphylococcus aureus [4] = test: Antibacterial activity against Staphylococcus aureus isolate upto 512 ug/mL; type: functional, organism-based
Staphylococcus aureus [5] = test: Antibacterial activity against Staphylococcus aureus isolate; type: functional
Escherichia coli [6] = test: Antibacterial activity against Escherichia coli ATCC 25668 upto 512 ug/mL; type: functional, organism-based
Pseudomonas aeruginosa [7] = test: Antibacterial activity against Pseudomonas aeruginosa ATCC 11775; type: functional
Salmonella typhimurium [8] = test: Antibacterial activity against Salmonella Typhimurium isolate upto 512 ug/mL; type: functional, organism-based; conditions: Salmonella enterica subsp. enterica serovar Typhimurium

Compound | MIC (Escherichia coli [2]) [µg/mL] | MIC (Salmonella typhimurium [3]) [µg/mL] | MIC (Staphylococcus aureus [5]) [µg/mL] | MIC (Pseudomonas aeruginosa [7]) [µg/mL] | Activity (Pseudomonas aeruginosa [1]) | Activity (Staphylococcus aureus [4]) | Activity (Escherichia coli [6]) | Activity (Salmonella typhimurium [8])
OCc1ccc2cc1OCC#C/C=C\C#CCO2 | 8 (≈ 33.3 µM) | 128 (≈ 533 µM) | 4 (≈ 16.6 µM) |  | inactive |  |  | 
Brc1ccc(/N=C/c2ccc3cc2OCC#C/C=C\C#CCO3)cc1 |  | 128 (≈ 326 µM) |  |  | inactive | inactive | inactive | 
C#CCOc1ccc(C=O)c(OCC#C)c1 | > 1000 | > 1000 | > 1000 | > 1000 |  |  |  | 
C1#CCOc2ccc(/C=N/c3ccccc3)c(c2)OCC#C/C=C\1 | 128 (≈ 408 µM) | 64 (≈ 204 µM) | 128 (≈ 408 µM) | 128 (≈ 408 µM) |  |  |  | 
CN(C)[C@@H]1C(O)=C(C(N)=O)C(=O)[C@@]2(O)C(O)=C3C(=O)c4c(O)cccc4[C@@](C)(O)[C@H]3C[C@@H]12 [TETRACYCLINE] | 2 (≈ 4.5 µM) | 0.5 (≈ 1.13 µM) | 2 (≈ 4.5 µM) | 1 (≈ 2.25 µM) |  |  |  | 
C#CCOc1cccc(OCC#C)c1 | > 1000 | > 1000 | > 1000 | > 1000 |  |  |  | 
O=Cc1ccc2cc1OCC#C/C=C\C#CCO2 | 256 (≈ 1070 µM) | 128 (≈ 537 µM) | 8 (≈ 33.6 µM) |  | inactive |  |  | 
C1#CCOc2ccc(CNc3ccccc3)c(c2)OCC#C/C=C\1 | 4 (≈ 12.7 µM) | 16 (≈ 50.7 µM) | 8 (≈ 25.4 µM) | 16 (≈ 50.7 µM) |  |  |  | 
Brc1ccc(NCc2ccc3cc2OCC#C/C=C\C#CCO3)cc1 | 128 (≈ 325 µM) |  |  |  | inactive | inactive |  | inactive

More lines, in order of falling MIC (Salmonella typhimurium [3]), values ahead:

MIC (Escherichia coli [2]) [µg/mL] | MIC (Salmonella typhimurium [3]) [µg/mL] | MIC (Staphylococcus aureus [5]) [µg/mL] | MIC (Pseudomonas aeruginosa [7]) [µg/mL] | Compound | Activity (Pseudomonas aeruginosa [1]) | Activity (Staphylococcus aureus [4]) | Activity (Escherichia coli [6]) | Activity (Salmonella typhimurium [8])
64 (≈ 183 µM) | 512 (≈ 1460 µM) |  |  | Clc1ccc(NCc2ccc3cc2OCC#C/C=C\C#CCO3)cc1 | inactive | inactive |  | 
256 (≈ 782 µM) | 128 (≈ 391 µM) |  |  | Cc1ccc(/N=C/c2ccc3cc2OCC#C/C=C\C#CCO3)cc1 | inactive | inactive |  | 
4 (≈ 12.1 µM) | 128 (≈ 389 µM) | 16 (≈ 48.6 µM) | 32 (≈ 97.1 µM) | Cc1ccc(NCc2ccc3cc2OCC#C/C=C\C#CCO3)cc1 |  |  |  | 
4 (≈ 19 µM) | 8 (≈ 38.1 µM) |  |  | C1#CCOc2cccc(c2)OCC#C/C=C\1 | inactive | inactive |  | 
